Measurements taken from US20060069123A1, “Substituted dipiperidine CCR2 antagonists” (priority 2004, published 2006).

biological target: T1, CCR2 (Homo sapiens, UniProt P41597); conditions: not given
T1 sequence (P41597 1-360 isoform P41597-2): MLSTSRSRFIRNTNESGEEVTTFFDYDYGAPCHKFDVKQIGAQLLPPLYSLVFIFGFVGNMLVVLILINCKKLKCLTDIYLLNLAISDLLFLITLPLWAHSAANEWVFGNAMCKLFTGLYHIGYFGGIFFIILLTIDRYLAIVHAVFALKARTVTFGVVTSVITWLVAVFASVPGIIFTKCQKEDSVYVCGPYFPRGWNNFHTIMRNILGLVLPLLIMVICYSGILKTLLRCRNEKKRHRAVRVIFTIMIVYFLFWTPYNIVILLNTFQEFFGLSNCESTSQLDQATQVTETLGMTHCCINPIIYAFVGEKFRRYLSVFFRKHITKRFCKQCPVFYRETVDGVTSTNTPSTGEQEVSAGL

| SMILES | IC50 [nM] |
| --- | --- |
| O=C(CC1CCN(C(C(=O)O)C2CCN(C(=O)/C=C/c3cc(F)c(F)c(F)c3)CC2)CC1)NCc1ccccc1 (centres unmarked) [Cpd 149] | 16600 |
| O=C(O)C(C1CCN(C(=O)/C=C/c2cc(F)cc(F)c2)CC1)N1CCC(Cc2c[nH]c3ccccc23)CC1 (centres unmarked) [Cpd 11, {1-[(2E)-3-(3,5-difluoro-phenyl)-acryloyl]-piperidin-4-yl}-[4-(1H-indol-3-ylmethyl)-piperidin-1-yl]-acetic acid] | 2170 |
| CCNC(=O)NCC(C1CCN(C(=O)/C=C/c2cccc(C(F)(F)F)c2)CC1)N1CCC(c2c[nH]c3ccccc23)CC1 (centres unmarked) [Cpd 232] | 4000 |
| CCNC(=O)NCC(C1CCN(C(=O)/C=C/c2cc(F)c(F)c(F)c2)CC1)N1CCC(c2c[nH]c3ccccc23)CC1 (centres unmarked) [Cpd 228] | 2400 |
| COC(=O)C(C1CCN(C(=O)/C=C/c2cc(F)c(F)c(F)c2)CC1)N1CCC(c2c[nH]c3c(OC)cccc23)CC1 (centres unmarked) [Cpd 118, [4-(7-methoxy-1H-indol-3-yl)-piperidin-1-yl]-{1-[(2E)-3-(3,4,5-trifluoro-phenyl)-acryloyl]-piperidin-4-yl}-acetic acid methyl ester] | 3200 |
| O=C(/C=C/c1cc(F)c(F)c(F)c1)N1CCC(C(CO)N2CCC(c3nccs3)CC2)CC1 (centres unmarked) [Cpd 195] | 3300 |
| COC(=O)c1ccc(C2CCN(C(C(=O)O)C3CCN(C(=O)/C=C/c4cc(F)cc(F)c4)CC3)CC2)cc1 (centres unmarked) [Cpd 145, 4-[1-(carboxy-{1-[(2E)-3-(3,5-difluoro-phenyl)-acryloyl]-piperidin-4-yl}-methyl)-piperidin-4-yl]-benzoic acid methyl ester] | 5850 |
| Cc1cccc(/C=C/C(=O)N2CCC(C(CNC=O)N3CCC(c4c[nH]c5ccccc45)CC3)CC2)c1 (centres unmarked) [Cpd 223] | 4100 |
| O=C(O)C(C1CCN(C(=O)Nc2cc(Cl)c(Cl)cc2Cl)CC1)N1CCC(c2c[nH]c3ccccc23)CC1 (centres unmarked) [Cpd 126, [4-(1H-indol-3-yl)-piperidin-1-yl]-[1-(2,4,5-trichloro-phenylcarbamoyl)-piperidin-4-yl]-acetic acid] | 2100 |
| CCNC(=O)NCC(C1CCN(C(=O)/C=C/c2cccc(C)c2)CC1)N1CCC(c2c[nH]c3ccccc23)CC1 (centres unmarked) [Cpd 231] | 4600 |
| O=C(O)C(C1CCN(C(=O)NCc2ccc(Cl)c(Cl)c2)CC1)N1CCC(c2c[nH]c3ccccc23)CC1 (centres unmarked) [Cpd 84, [1-(3,4-dichloro-benzylcarbamoyl)-piperidin-4-yl]-[4-(1H-indol-3-yl)-piperidin-1-yl]-acetic acid] | 2900 |
| O=CNCC(C1CCN(C(=O)Nc2ccc(Cl)c(Cl)c2)CC1)N1CCC(c2c[nH]c3ccccc23)CC1 (centres unmarked) [Cpd 226] | 2100 |
| COC(=O)NCC(C1CCN(C(=O)/C=C/c2ccc(Cl)c(Cl)c2)CC1)N1CCC(c2c[nH]c3ccccc23)CC1 (centres unmarked) [Cpd 240] | 4600 |
| CC(=O)OCC(C1CCN(C(=O)OC(C)(C)C)CC1)N1CCC(c2c[nH]c3ccccc23)CC1 (centres unmarked) [Cpd 234, 4-{2-acetoxy-1-[4-(1H-indol-3-yl)-piperidin-1-yl]-ethyl}-piperidine-1-carboxylic acid tert-butyl ester] | 11200 |
| O=C(O)C(C1CCN(C(=O)/C=C/c2cc(F)c(F)c(F)c2)CC1)N1CCC(n2ccc3ccccc32)CC1 (centres unmarked) [Cpd 10, (4-indol-1-yl-piperidin-1-yl)-{1-[(2E)-3-(3,4,5-trifluoro-phenyl)-acryloyl]-piperidin-4-yl}-acetic acid] | 8600 |

Further lines, results first:

| IC50 [nM] | SMILES |
| --- | --- |
| 1610 | COc1ccc(/C=C/C(=O)N2CCC(C(C(=O)O)N3CCC(c4c[nH]c5ccccc45)CC3)CC2)cc1OC (centres unmarked) [Cpd 63, {1-[(2E)-3-(3,4-dimethoxy-phenyl)-acryloyl]-piperidin-4-yl}-[4-(1H-indol-3-yl)-piperidin-1-yl]-acetic acid] |
| 30 | N=C(NC(=O)c1cc(F)c(F)c(F)c1)N1CCC(C(C(=O)O)N2CCC(c3c[nH]c4ccccc34)CC2)CC1 (centres unmarked) [Cpd 52, {1-[imino-(3,4,5-trifluoro-benzoylamino)-methyl]-piperidin-4-yl}-[4-(1H-indol-3-yl)-piperidin-1-yl]-acetic acid] |
| 20 | O=C(O)C(C1CCN(C(=S)Nc2ccc(Cl)c(Cl)c2)CC1)N1CCC(c2c[nH]c3ccccc23)CC1 (centres unmarked) [Cpd 64, [1-(3,4-dichloro-phenylthiocarbamoyl)-piperidin-4-yl]-[4-(1H-indol-3-yl)-piperidin-1-yl]-acetic acid] |
| 253 | O=C(O)C(C1CCN(C(=O)/C=C/c2ccc(Cl)c(Cl)c2)CC1)N1CCC(c2ccc(Cl)cc2)CC1 (centres unmarked) [Cpd 1, [4-(4-chloro-phenyl)-piperidin-1-yl]-{1-[(2E)-3-(3,4-dichloro-phenyl)-acryloyl]-piperidin-4-yl}-acetic acid] |
| 1000 | O=C(O)C(C1CCN(C(=O)Nc2ccc(Cl)cc2F)CC1)N1CCC(c2c[nH]c3ccccc23)CC1 (centres unmarked) [Cpd 117, [1-(4-chloro-2-fluoro-phenylcarbamoyl)-piperidin-4-yl]-[4-(1H-indol-3-yl)-piperidin-1-yl]-acetic acid] |
| 480 | O=C(O)C(C1CCN(C(=O)Nc2ccc(F)cc2)CC1)N1CCC(c2c[nH]c3ccccc23)CC1 (centres unmarked) [Cpd 90, [1-(4-fluoro-phenylcarbamoyl)-piperidin-4-yl]-[4-(1H-indol-3-yl)-piperidin-1-yl]-acetic acid] |
| 1400 | N=C(NC(=O)c1cccc(F)c1)N1CCC(C(C(=O)O)N2CCC(c3c[nH]c4ccccc34)CC2)CC1 (centres unmarked) [Cpd 54, {1-[(3-fluoro-benzoylamino)-imino-methyl]-piperidin-4-yl}-[4-(1H-indol-3-yl)-piperidin-1-yl]-acetic acid] |
| 20 | O=C(/C=C/c1cc(F)cc(F)c1)N1CCC(C(CO)N2CCC(c3ccc(Cl)cc3)CC2)CC1 (centres unmarked) [Cpd 249, (2E)-1-(4-{1-[4-(4-chloro-phenyl)-piperidin-1-yl]-2-hydroxy-ethyl}-piperidin-1-yl)-3-(3,5-difluoro-phenyl)-propenone] |
| 140 | Cc1ccc(NC(=S)N2CCC(C(C(=O)O)N3CCC(c4c[nH]c5ccccc45)CC3)CC2)cc1 (centres unmarked) [Cpd 78, [4-(1H-indol-3-yl)-piperidin-1-yl]-(1-p-tolylthiocarbamoyl-piperidin-4-yl)-acetic acid] |
| 1600 | O=C(O)C(C1CCN(C(=O)/C=C/c2cc(F)c(F)c(F)c2)CC1)N1CCC(c2cc[nH]c2)CC1 (centres unmarked) [Cpd 150, [4-(1H-pyrrol-3-yl)-piperidin-1-yl]-{1-[(2E)-3-(3,4,5-trifluoro-phenyl)-acryloyl]-piperidin-4-yl}-acetic acid] |
| 840 | COc1ccc(C2CCN(C(C(=O)O)C3CCN(C(=O)/C=C/c4cc(F)c(F)c(F)c4)CC3)CC2)cc1 (centres unmarked) [Cpd 5, [4-(4-methoxy-phenyl)-piperidin-1-yl]-{1-[(2E)-3-(3,4,5-trifluoro-phenyl)-acryloyl]-piperidin-4-yl}-acetic acid] |
| 1300 | O=CNCC(C1CCN(C(=O)/C=C/c2ccsc2)CC1)N1CCC(c2c[nH]c3ccccc23)CC1 (centres unmarked) [Cpd 225] |

same assay, conditions: read-out: Inhibition of MCP-1 Binding IC50; 125I labeled MCP-1 binding to CCR2, THP-1 cells

| IC50 [nM] | SMILES |
| --- | --- |
| 1600 | COc1ccc(C2CCN(C(CO)C3CCN(C(=O)/C=C/c4cc(F)c(F)cc4F)CC3)CC2)cc1 (centres unmarked) [Cpd 140, (2E)-1-(4-{2-hydroxy-1-[4-(4-methoxy-phenyl)-piperidin-1-yl]-ethyl}-piperidin-1-yl)-3-(2,4,5-trifluoro-phenyl)-propenone] |

same assay, conditions: read-out: Inhibition of MCP-1 Binding, percent inhibition

| inhibition at 25 µM [%] | SMILES |
| --- | --- |
| 53 | O=C(/C=C/c1ccc(C(F)(F)F)cc1)N1CCC(C(CCl)N2CCC(c3ccc(Cl)cc3)CC2)CC1 (centres unmarked) [Cpd 247, (2E)-1-(4-{2-chloro-1-[4-(4-chloro-phenyl)-piperidin-1-yl]-ethyl}-piperidin-1-yl)-3-(4-trifluoromethyl-phenyl)-propenone] |
